The values that follow come from patent publication US20150238488A1, “DRUG COMPOSITION FOR TREATING TUMORS AND APPLICATION THEREOF” (priority 2012, published 2015).

Structures are written as SMILES. Read-outs that look alike come from different tables or passages of the source.

Series [1] can be described thus: Experiment 2-1: body weight of tumor-bearing nude mice. To be noted: 100 mg/kg each drug, intragastric, 2 times a day, 14 days, x ± s, n=3; for Body weight (g) Final: final (Day 23). The class given is in vivo, BALB/c-nu nude mice. The procedure:
(§1) Under sterile conditions, the above tumor cells were collected in the logarithmic growth phase, and were injected by subcutaneous injection in an amount of 1×10^7/0.2 mL/nude mice (cell viability>95%) into the right subaxillary of the nude mice, thus establishing leukemia transplated tumor models of in nude mice. The mice were administered from the third day after the inoculation. The treated group was intragastrically administered at the experimentally designed amount, the negative control group was intragastrically administered with sterile water, and the positive control group was intragastrically administered with IM. Each mouse was intragastrically administered in 0.4 ml each time and 2 times a day. The administrations were successive for 14 days. The day before administration was deemed as Day 0 and the body weight and tumor size of the mice were determined every 5 days to produce a dynamic plot on body weight and tumor growth. On Day 23, the mice were sacrificed and the tumors were taken out and weighed. The tumor inhibition rate (%) was calculated after the effect of the medicament based on a tumor inhibition rate of the control group being zero.

In series [2] the test system is K562/ADR leukemia transplanted tumor. Put plainly: Experiment 2-1: inhibition of leukemia transplanted tumor in nude mice (BBM, IM). The class given is in vivo, BALB/c-nu nude mice. The settings on record: K562/ADR xenograft, 100 mg/kg each drug, intragastric, 2 times a day, 14 days, Day 23; for Tumor inhibition rate (%): control = 0; for Tumor weight: x ± s. The procedure:
Leukemia cell lines: K562/ADR (ADM-resistant human chronic granulocytic leukemia cell line);
(§2) Animals: BALB/c-nu nude mice
as §1

The subject of series [3] is human leukemia Jurkat cells. The settings on record: cited from earlier work.
Series [4] has as its system peripheral blood leucocyte of a normal human being. The settings on record: drug concentration 0.5 μg/mL to 10 μg/mL; cited from earlier work.
The subject of series [5] is KCL-22 (chronic myeloid leukemia cell line). The series can be described thus: MTT cell viability, 72 h, single drugs and combination. The class given is cell-based. The settings on record: Homo sapiens, read-out: CV(%) cell viability. An excerpt: (§3) Leukemia cell lines: K562 (chronic myeloid leukemia cell line), K562/ADR (doxorubicin(ADM)-resistant human chronic granulocytic leukemia cell line), KCL-22 (chronic myeloid leukemia cell line), KCL-22 M (human chronic granulocytic leukemia cell line mutant), CML-BC (KCL-28 patient's cells), all of which are donated by Cancer Research Institute of Zhejiang University, China; KU812 (chronic myeloid leukemia cell line), purchased from Fuxiang Bio-tech Co. Ltd., Shanghai, China.
(§4) 1. […] Well-growing leukemia cells were obtained and inoculated into wells of a 96-well cell culture plate at 5000 cells/well. Respective compounds of various concentrations were added, mixed uniformly, and incubated (5% CO2) at 37° C. for 72 hours. Then the cell viability was determined by the MTT method.
(§5) 2. Determine the inhibitory effects of bisbenzylisoquinoline in combination with IM on leukemia cells in vitro. The pretreatment of the cells was the same as in a). The control group was not treated with the compound while administered. In the experimental group, compounds were added respectively to the concentration under which the IC50 (μg/mL) of the compounds in step 1 achieves. As to the combination group, the two compounds were added together into the same group of wells. After 72 hours of incubation, the MTT method was used for the determination of cell viability. The cell viability of the control group was set to 100% in this experiment, and the BBM/TTD, IM single drug and combined effects on cell viability (100%) were calculated.

Series [6] relates to K562 (chronic myeloid leukemia cell line). Described as above. The class given is cell-based. To be noted: Homo sapiens, read-out: CV(%) cell viability.
Text: as §3, §4, §5

In series [7] the test system is KU812 (chronic myeloid leukemia cell line). The description is as above. The class given is cell-based. The settings on record: Homo sapiens, KU812, 72 h; read-out: CV(%) cell viability.
Text: as §3, §4, §5

Series [8] concerns K562/ADR (doxorubicin(ADM)-resistant human chronic granulocytic leukemia cell line). The series is described as above. The class given is cell-based. The settings on record: read-out: CV(%) cell viability.
Text: as §3, §4, §5

Series [9] deals with KCL-22 M (human chronic granulocytic leukemia cell line mutant). The series is described as above. The class given is cell-based. The settings on record: read-out: CV(%) cell viability.
Text: as §3, §4, §5

Series [10] concerns CML-BC (KCL-28 patient's cells). Described as above. The class given is cell-based. To be noted: read-out: CV(%) cell viability.
Text: as §3, §4, §5

The nature of series [11]: Experiment 2-2: body weight of tumor-bearing nude mice. To be noted: 50 mg/kg each drug, intragastric, 2 times a day, 14 days, x ± s, n=3; for Body weight (g) Final: final (Day 20). The class given is in vivo, BALB/c-nu nude mice. Here is the method:
as §1, with “the sixth” for “the third”, “Day 20,” for “Day 23,”, “tumors are” for “tumors were”

Series [12] concerns K562/ADR leukemia transplanted tumor. The series can be described thus: Experiment 2-2: inhibition of leukemia transplanted tumor in nude mice (TTD, IM). The class given is in vivo, BALB/c-nu nude mice. To be noted: K562/ADR xenograft, 50 mg/kg each drug, intragastric, 2 times a day, 14 days, Day 20; for Tumor inhibition rate (%): control = 0; for Tumor weight: x ± s. The procedure:
Leukemia cell lines: K562/ADR (ADM-resistant human chronic myeloid leukemia cell line);
as §2
as §1, with “the sixth” for “the third”, “Day 20,” for “Day 23,”, “tumors are” for “tumors were”

On to `COc1cc2c3cc1Oc1c(OC)c(OC)cc4c1[C@@H](Cc1ccc(O)c(c1)Oc1ccc(cc1)C[C@@H]3N(C)CC2)N(C)CC4` [BBM, 6,6′,7-trimethoxy-2,2′-dimethylberbaman-12-ol], for which, in [1], the “Body weight (g) Final” value was 18.57 ± 2.28 g. Also, the “Body weight (g) Initial” value in series [1] worked out at 21.23 ± 0.23 g. For the same compound, the “Tumor inhibition rate (%)” value in series [2] came out at 63.66%. Also, the “Tumor weight” value in series [2] stood at 0.25 ± 0.34 g. The cell viability – broadly, a read-out of living cells in per cent, often relative to untreated cells – is recorded as 93.69% in [3] (drug concentration 0.5 μg/mL) and 14.85% in series [3] (drug concentration 10 μg/mL). Besides, the cytotoxic effect entry in series [4] is “no evident cytotoxic effect”. In addition, the viability (commonly the share of living cells, or the viability signal relative to a control) at 6.5 µg/mL in series [5] (KCL-22, BBM 6.5 μg/mL (IC50 dose), 72 h, MTT) was determined as 50%. The viability at 1.6 µg/mL in [6] (K562, BBM 1.6 μg/mL (IC50 dose), 72 h, MTT) stood at 44.5%. The viability at 1.5 µg/mL stood at 51.6% in series [7], 46.3% in [8] (K562/Adr) and 54.4% in series [10]. Besides, the viability at 1.7 µg/mL in series [9] (KCL-22, 72 h) came to 52.4%.

`Cc1ccc(NC(=O)c2ccc(CN3CCN(C)CC3)cc2)cc1Nc1nccc(-c2cccnc2)n1` [IM]: in series [1], the “Body weight (g) Final” value was 17.37 ± 2.75 g and the “Body weight (g) Initial” value stood at 21.00 ± 0.12 g. For the same compound, in [11], the “Body weight (g) Final” value is listed as 18.40 ± 0.52 g and the “Body weight (g) Initial” value amounted to 21.47 ± 0.21 g. Also, in series [2], the “Tumor inhibition rate (%)” value is given as 71.98% and the “Tumor weight” value stood at 0.19 ± 0.27 g. Besides, in series [12], the “Tumor inhibition rate (%)” value came out at 12.26% and the “Tumor weight” value worked out at 0.81 ± 0.52 g. In addition, the viability at 0.05 µg/mL in series [5] (KCL-22, 72 h) turned out to be 51.1%. The viability at 0.08 µg/mL in series [5] (KCL-22, IM 0.08 μg/mL (IC50 dose), 72 h, MTT) worked out at 48.5%. In series [6] (K562, 72 h), the viability at 0.02 µg/mL is 57.9% and the viability at 0.03 µg/mL was 44.2%. In [7], the viability at 0.01 µg/mL was found to be 56.7% and the viability at 0.03 µg/mL came to 53.3%. Moreover, the viability at 0.16 µg/mL in series [8] (K562/ADR, IM 0.16 μg/mL (IC50 dose), MTT) was found to be 42.5%. In addition, the viability at 0.2 µg/mL in series [8] (K562/Adr) is 42.3%. In [9] (KCL-22 M, IM 3.27 μg/mL (IC50 dose), 72 h, MTT), the viability at 3.27 µg/mL worked out at 48%. In [10], the viability at 0.01 µg/mL stood at 57.1% and the viability at 0.02 µg/mL came to 57.1%.

Regarding `COc1ccc2cc1Oc1ccc(cc1)C[C@H]1c3cc(c(OC)cc3CCN1C)Oc1c(OC)c(OC)cc3c1[C@H](C2)N(C)CC3` [TTD, 6,6′,7,12-tetramethoxy-2,2′dimethylberbamine], in series [11], the “Body weight (g) Final” value turned out to be 18.93 ± 1.53 g and the “Body weight (g) Initial” value stood at 21.30 ± 0.10 g. For the same compound, in [12], the “Tumor inhibition rate (%)” value is 10.18% and the “Tumor weight” value is reported as 0.83 ± 0.76 g.
